How the values were obtained:
[1] = tested on: MDA-MB-231-Luc human breast cancer cell line carrying mutant p53 (R280K); test: In vivo efficacy study, orthotopic MDA-MB-231-Luc breast cancer xenograft in nude mice; set-up: species or system nude mice (Hsd:AthymicNude-Foxnlnu); conditions: 42 or 125 mg/kg intraperitoneally twice daily, 3 cycles of 5 days, compared to control animals
Experimental: A: Luciferase luminescence from mice xenografted with MDA-MB-231-Luc breast cancer cells. B: Tumor weight at day 33 after beginning of treatment.
The compound of Example 4 was administered intraperitoneally twice daily at 42 or 125 mg/kg to nude mice (Hsd:AthymicNude-Foxnlnu) ortotopically xenografted with the human breast cancer cell line MDA-MB-231-Luc, carrying mutant p53 (R280K). To make MDA-MB-231-Luc, the cell line MDA-MB-231 was stably transfected with a synthetic gene for firefly luciferase, Luc2 (pGL4, Promega). Thereby, the tumor load may be externally monitored by luminescence measurement (radiance values; photon/second/cm^2/steradian). 5×10^6 MBA-MB-231-luc cells were injected, and eight days later the animals were stratified into treatment groups and control, 8 animals in each group, based on luminescence measurement. Treatment was started on day 11 and done in 3 cycles of 5 days each, with 2 days recovery. Tumor progression was evaluated by non-invasive in vivo imaging during the second cycle (day 18) and at the end of treatment (day 32). On day 33, the animals were sacrificed and the tumors excised and weighed.

[2] = tested on: SaOS-2 His273 mtp53 human osteosarcoma cell line; test: In vitro efficacy study using the SaOS-2 His273 protocol (CellTiter-Glo viability, 72 h); format: cell-based; conditions: SAOS-2, growth suppression, 72 hours incubation, CellTiter-Glo, read-out: SaOS-2 His273 IC50
Experimental: SaOS-2 His273 mtp53 is a human osteosarcoma cell line which has been genetically engineered at OnkPat CCK to express His273 mutated p53.
3000 cells/well (50 μl) were seeded into masked (black or white with clear bottom) 96-well cell culture plates using Iscove's Modified Dulbecco's Medium supplemented with 10% heat inactivated (56° C. for 60 min) fetal calf serum. The plates were then incubated for 4 hours, allowing the cells to attach. The test compounds were dissolved in DMSO or water to a concentration of 0.01 M and then further diluted to desired concentrations using the cell medium. 50 μl of freshly diluted test compound from fresh stock was added to the wells. The plates were then incubated for 72 hours.
For viability detection, CellTiter-Glo® Luminescent Cell Viability Assay (CTG) was used. CTG is a homogeneous “add-mix-measure” format method of determining the number of viable cells in culture based on quantitation of the ATP present, an indicator of metabolically active cells. The luminescence was measured using the PerkinElmer Victorx4 instrument.
The average of the signal values for the untreated cells was calculated for each plate. The % of growth suppression was calculated as:
100−((Signal sample/Signal untreated cells)×100).
The results of the SaOs-2 His273 analyses were expressed as IC50 values, i.e. concentration that suppresses growth of at least 50% of the cells. The IC50 values of various compounds according to the invention and of some comparative compounds are shown in Table 1, Table 2, Table 3 and Table 4.

## O=C1C2CCN(CC2)C1CNC(=O)C(F)(F)F (racemic) [Example 4, 2,2,2-trifluoro-N-((3-oxoquinuclidin-2-yl)methyl)acetamide]
[1]; imaging day 18 and day 32
  tumor cell migration as measured by radiance of luminescence (FIG. 1A): reduced tumor cell migration compared to control animals
[1]; tumors excised day 33
  tumor weight (FIG. 1B): reduced tumor weight compared to control animals
[2]
  IC50: 5.6 µM
